From patent US20240398787A1, “TREATMENT OF MAJOR DEPRESSIVE DISORDER” (AbbVie Inc., priority 2021, published 2024)

Legend:
Format in all cases: in vivo, human
[1] = system: patients with major depressive disorder (MDD); assay: Hamilton Anxiety Rating Scale (HAM-A) total score, Clinical Study A; details: for LS mean change from baseline to week 6, HAM-A / LSMD vs placebo, HAM-A: MMRM; for HAM-A remission rate (total score ≤7) / HAM-A remission, odds ratio vs placebo / HAM-A response rate (≥50% score reduction from baseline) / HAM-A response, odds ratio vs placebo / LSMD vs placebo, HAM-A: week 6; for HAM-A remission rate (total score ≤7) / HAM-A remission, odds ratio vs placebo / HAM-A response rate (≥50% score reduction from baseline) / HAM-A response, odds ratio vs placebo: LOCF
Protocol: (§1) A global, multicenter, randomized, double-blind (DB), placebo-controlled, parallel-group, fixed-dose study compared cariprazine 1.5 mg/day and cariprazine 3 mg/day with placebo as an adjunctive treatment to ongoing ADT in outpatients with a diagnosis of MDD (via the Diagnostic and Statistical Manual of Mental Disorders, Fifth Edition [DSM-5]) having an inadequate response, as measured by the modified Antidepressant Treatment Response Questionnaire (ATRQ), to 1 to 3 antidepressants administered during the current episode at an adequate dose and adequate duration. Adequate dose was defined as a dose above the minimum labeled dose (per package insert). Adequate duration was defined as continuous ADT treatment for at least 6 weeks, with a minimum of 3 of 6 weeks above the minimal dose.
(§2) The study consisted of up to 14 days screening (with up to an additional 7 days of needed) and washout of prohibited medications followed by 6 weeks of double-blind (DB) treatment followed by a 4-week safety follow-up. At the end of the screening period, patients meeting the entry criteria for the study were randomized (1:1:1) to 1 of 3 double-blind treatment groups. Study treatment groups were: cariprazine 1.5 mg/day+antidepressant therapy and cariprazine 3 mg/day+antidepressant therapy. The control group received matching placebo+antidepressant therapy.
(§3) Dosage/Dose Regimen: Investigational product (cariprazine or placebo) in the form of capsules packaged in blister packs will be provided. No investigational product was administered during the screening/washout period; patients continued the same antidepressant and dose they were on at screening. Patients were taking more than one antidepressant at screening, regardless of the indication, discontinued all other antidepressants prior to baseline (Visit 2). During the double-blind treatment period (6 weeks), patients were administered 1 capsule orally per day in addition to their ongoing ADT. Patients in the 1.5 mg/day+ADT arm were administered 1.5 mg+ADT starting at Visit 2 (Week 0). Patients in the 3 mg/day+ADT arm were administered 1.5 mg+ADT starting at Visit 2 (Week 0) for 2 weeks and then titrate to 3 mg/day+ADT starting at Visit 4 (Week 2). Patients were supplied with identically appearing capsules of either cariprazine 1.5 mg, cariprazine 3 mg, or placebo.
A randomized, double-blind, placebo-controlled, multicenter trial with 759 participants was conducted in United States, Bulgaria, Estonia, Germany, Hungary, Ukraine, and the United Kingdom. Following a screening period of up to 14 days (with up to an additional 7 days if needed), which included a washout of prohibited psychotropic medications except for ongoing ADT, patients with a partial response to their antidepressant monotherapy were randomized into three treatment groups (1:1:1). One group received cariprazine 1.5 mg/d+ADT, one received cariprazine 3.0 mg/d+ADT, and one group received placebo+ADT. All participants randomized to cariprazine began on 1.5 mg/d; cariprazine 1.5 mg/d patients remained at that dosage, while cariprazine 3.0 mg/d patients received 1.5 mg/d for 2 weeks and increased to 3.0 mg/d on day 15.
The primary and secondary efficacy parameters were change from baseline to week 6 in Montgomery-Åsberg Depression Rating Scale (MADRS) total score and Clinical Global Impressions-Severity (CGI-S) score, respectively (screening, baseline, and weeks 1, 2, 4, and 6). Additional efficacy parameters (screening, baseline, and ≥1 double-blind visit) included: MADRS response (≥50% MADRS total score reduction) and remission (MADRS total score ≤10); change from baseline in HAMD-17 total score and Hamilton Anxiety Rating Scale (HAM-A) total score (32); and Clinical Global Impressions-Improvement (CGI-I) score and response (CGI-I score ≤2).
The Hamilton Anxiety Rating Scale (HAM-A) (Hamilton 1959) is a clinician-rated scale which consists of 14 items, each rated on a 5-point scale ranging from 0 (not present) to 4 (very severe). […]

[2] = Weight changes, Clinical Study A
Protocol: as §1, §2, §3
(§4) A randomized, double-blind, placebo-controlled, multicenter trial with 759 participants was conducted in United States, Bulgaria, Estonia, Germany, Hungary, Ukraine, and the United Kingdom. […]

[3] = system: patients with major depressive disorder (MDD); assay: Hamilton Depression Rating Scale-17 (HAMD-17) total score, Clinical Study A; details: ANCOVA and LOCF; for LSMD vs placebo, HAMD-17: week 6
Protocol: as §1, §2, §3, §4

CN(C)C(=O)N[C@H]1CC[C@H](CCN2CCN(c3cccc(Cl)c3Cl)CC2)CC1 [Cariprazine, trans-N-{4-[2-[4-(2,3-dichlorophenyl)piperazin-1-yl]ethyl]cyclohexyl}-N′,N′-dimethylurea]
LS mean change from baseline to week 6, HAM-A ([1]; 1.5 mg/d + ADT): −9.1 | HAM-A remission rate (total score ≤7) ([1]; 1.5 mg/d + ADT): 28.7% | HAM-A remission, odds ratio vs placebo ([1]; 1.5 mg/d + ADT): 1.2 | HAM-A response rate (≥50% score reduction from baseline) ([1]; 1.5 mg/d + ADT): 40.9% | HAM-A response, odds ratio vs placebo ([1]; 1.5 mg/d + ADT): 1.3 | LSMD vs placebo, HAM-A ([1]; 1.5 mg/d + ADT): −1.3 | LS mean change from baseline to week 6, HAM-A ([1]; 3 mg/d + ADT): −8.6 | HAM-A remission rate (total score ≤7) ([1]; 3.0 mg/d + ADT): 27.9% | HAM-A remission, odds ratio vs placebo ([1]; 3.0 mg/d + ADT): 1.1 | HAM-A response rate (≥50% score reduction from baseline) ([1]; 3.0 mg/d + ADT): 41.0% | HAM-A response, odds ratio vs placebo ([1]; 3.0 mg/d + ADT): 1.3 | LSMD vs placebo, HAM-A ([1]; 3 mg/d + ADT): −0.8 | Weight change from baseline, mean (SD) ([2]; 1.5 mg + ADT, n = 252): 0.68 (2.5) kg | Weight increase ≥7% from baseline ([2]; 1.5 mg + ADT, n = 252): 10 (4.0) n (%) | Weight change from baseline, mean (SD) ([2]; 3 mg + ADT, n = 252): 0.78 (2.8) kg | Changes in weight at the end of treatment ([2]; all treatment groups): < 1 kg | LS mean change from baseline to week 6, HAMD-17 total score ([3]; 1.5 mg/d + ADT): −12.7 | LSMD vs placebo, HAMD-17 ([3]; 1.5 mg/d + ADT): −2.1 | LS mean change from baseline to week 6, HAMD-17 total score ([3]; 3 mg/d + ADT): −11.9 | LSMD vs placebo, HAMD-17 ([3]; 3 mg/d + ADT): −1.2
